A value given as a limit tells only on which side of the number the result lay.

The target in this assay is T1, F508delCFTR cell surface expression in CFBE41o-F508delCFTR-HRP cells (Homo sapiens, UniProt P13569, DEL508-508).
T1 construct: fused on or other part: Horseradish peroxidase (HRP) reporter inserted in the fourth exofacial (extracellular) loop of CFTR; expression is doxycycline-inducible
Description: Cell Surface Expression-Horse Radish Peroxidase (CSE-HRP) Assay. The note with it: for EC50: CFBE41o-F508delCFTR-HRP cells, 18-24 hours at 33° C., 8-point curve, highest concentration 20 μM; for Maximum % activity (%): maximum at any tested concentration, normalized to on-plate positive control (3 μM). Type of assay: cell-based. In short, it runs like this: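 Correctors incubated 18-24 h at 33 °C on doxycycline-induced (0.5 μg/mL, 72 h) CFBE41o-F508delCFTR-HRP cells, 3-fold series from 20 μM. After DPBS washes, luminol luminescence read; activity expressed relative to DMSO and a 3 μM positive control, EC50 fitted from triplicate plates.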

T1 sequence (P13569 with tags, fused parts or gaps DEL508-508 limits assumed): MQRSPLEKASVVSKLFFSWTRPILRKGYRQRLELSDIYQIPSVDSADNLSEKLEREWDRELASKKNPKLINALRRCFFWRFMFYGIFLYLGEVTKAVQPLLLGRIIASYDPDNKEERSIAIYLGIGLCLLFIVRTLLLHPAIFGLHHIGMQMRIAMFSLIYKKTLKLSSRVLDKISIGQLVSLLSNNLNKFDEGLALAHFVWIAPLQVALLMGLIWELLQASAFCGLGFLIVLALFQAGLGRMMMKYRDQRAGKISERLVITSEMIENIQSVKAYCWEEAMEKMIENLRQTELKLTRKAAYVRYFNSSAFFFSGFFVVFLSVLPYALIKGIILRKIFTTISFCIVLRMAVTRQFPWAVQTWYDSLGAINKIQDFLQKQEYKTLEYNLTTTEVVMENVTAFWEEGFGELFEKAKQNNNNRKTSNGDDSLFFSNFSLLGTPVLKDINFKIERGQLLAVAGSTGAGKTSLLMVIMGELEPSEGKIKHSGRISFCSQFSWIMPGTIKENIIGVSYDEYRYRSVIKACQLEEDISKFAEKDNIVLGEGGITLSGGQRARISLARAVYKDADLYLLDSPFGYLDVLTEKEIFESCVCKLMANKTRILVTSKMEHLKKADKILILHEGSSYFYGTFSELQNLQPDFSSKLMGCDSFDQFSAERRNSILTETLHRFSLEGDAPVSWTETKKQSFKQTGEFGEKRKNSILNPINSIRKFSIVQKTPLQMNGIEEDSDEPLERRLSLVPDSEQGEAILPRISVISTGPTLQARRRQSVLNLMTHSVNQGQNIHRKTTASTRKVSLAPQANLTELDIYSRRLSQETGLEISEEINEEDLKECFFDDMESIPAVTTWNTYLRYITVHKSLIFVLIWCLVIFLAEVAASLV
T1 sequence (P13569 919-1480 limits assumed, stated change not applied): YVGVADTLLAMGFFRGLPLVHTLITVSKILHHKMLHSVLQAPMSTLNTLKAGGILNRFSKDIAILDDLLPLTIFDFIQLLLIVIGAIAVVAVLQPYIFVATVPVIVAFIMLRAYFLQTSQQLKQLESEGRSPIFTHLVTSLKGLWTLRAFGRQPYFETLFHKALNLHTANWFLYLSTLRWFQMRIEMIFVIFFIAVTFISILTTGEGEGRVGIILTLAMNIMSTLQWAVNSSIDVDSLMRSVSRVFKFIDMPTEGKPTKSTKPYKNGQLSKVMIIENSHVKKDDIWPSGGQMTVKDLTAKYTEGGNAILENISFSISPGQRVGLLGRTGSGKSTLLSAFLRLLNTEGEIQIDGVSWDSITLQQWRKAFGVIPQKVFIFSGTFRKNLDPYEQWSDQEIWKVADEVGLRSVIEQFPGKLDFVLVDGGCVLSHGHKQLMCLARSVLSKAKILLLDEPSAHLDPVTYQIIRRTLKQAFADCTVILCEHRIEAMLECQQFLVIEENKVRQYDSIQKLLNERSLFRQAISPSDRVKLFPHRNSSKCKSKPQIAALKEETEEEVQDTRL

With “1-(6-{[(7R)-2,2-difluoro-7-methyl-6,7-dihydro-2H-furo[2,3-f][1,3]benzodioxole-7-carbonyl]amino}pyridin-2-yl)-4,4-dimethylpyrrolidine-3-carboxylic acid [Example 115]”, a half-maximal response (EC50) required 1000 nM and the “Maximum % activity (%)” value came to 147%.
For `CC1(C(=O)Nc2ccc(N3CC(C(=O)O)C3)cc2)COc2cc3c(cc21)OC(F)(F)O3` (stereo not shown) [Example 61, 1-{4-[(2,2-difluoro-7-methyl-6,7-dihydro-2H-furo[2,3-f][1,3]benzodioxole-7-carbonyl)amino]phenyl}azetidine-3-carboxylic acid], in that order: above 20000 nM and 8%.
Taken in the same sequence, the figures for `COc1ccc2c(c1)O[C@@H](c1cnc([C@@H](O)CO)cn1)C[C@H]2NC(=O)[C@@]1(C)COc2cc3c(cc21)OC(F)(F)O3` (single isomer, unassigned) [Example 191] were 70 nM and 123%.
For `COc1ccc2c(c1)O[C@@H](c1cnc(CO)cn1)C[C@H]2NC(=O)[C@@]1(C)COc2cc3c(cc21)OC(F)(F)O3` [Example 173, (7R)-2,2-difluoro-N-{(2R,4R)-2-[5-(hydroxymethyl)pyrazin-2-yl]-7-methoxy-3,4-dihydro-2H-1-benzopyran-4-yl}-7-methyl-6,7-dihydro-2H-furo[2,3-f][1,3]benzodioxole-7-carboxamide], the EC50 is 90 nM and the “Maximum % activity (%)” value was 132%.
`C[C@]1(C(=O)Nc2cc(Br)cn(-c3ccc(C(=O)O)cc3)c2=O)COc2cc3c(cc21)OC(F)(F)O3` [Example 97, 4-[5-bromo-3-{[(7R)-2,2-difluoro-7-methyl-6,7-dihydro-2H-furo[2,3-f][1,3]benzodioxole-7-carbonyl]amino}-2-oxopyridin-1(2H)-yl]benzoic acid]: the EC50 worked out at 480 nM and the “Maximum % activity (%)” value is given as 148%.
For `CCOC(=O)[C@H]1CC[C@H]([C@@H]2C[C@H](NC(=O)[C@@]3(C)COc4cc5c(cc43)OC(F)(F)O5)c3ccc(OC)cc3O2)CC1` [Example 152, ethyl trans-4-[(2S,4S)-4-{[(7R)-2,2-difluoro-7-methyl-6,7-dihydro-2H-furo[2,3-f][1,3]benzodioxole-7-carbonyl]amino}-7-methoxy-3,4-dihydro-2H-1-benzopyran-2-yl]cyclohexane-1-carboxylate], in that order: 806 nM and 102%.
Taken in the same sequence, the figures for “methyl 4-[(2R,4S,6S)-4-{[(7R)-2,2-difluoro-7-methyl-6,7-dihydro-2H-furo[2,3-f][1,3]benzodioxole-7-carbonyl]amino}-6-phenyloxan-2-yl]benzoate and methyl 4-[(2S,4R,6R)-4-{[(7R)-2,2-difluoro-7-methyl-6,7-dihydro-2H-furo[2,3-f][1,3]benzodioxole-7-carbonyl]amino}-6-phenyloxan-2-yl]benzoate [Example 33]” were 1180 nM and 131%.
With `CC(C)(CO)NC(=O)[C@H]1CC[C@H]([C@H]2C[C@@H](NC(=O)[C@@]3(C)COc4cc5c(cc43)OC(F)(F)O5)c3ccc(OC(F)(F)F)cc3O2)CC1` [Example 268, (7R)-2,2-difluoro-N-[(2R,4R)-2-{trans-4-[(1-hydroxy-2-methylpropan-2-yl)carbamoyl]cyclohexyl}-7-(trifluoromethoxy)-3,4-dihydro-2H-1-benzopyran-4-yl]-7-methyl-6,7-dihydro-2H-furo[2,3-f][1,3]benzodioxole-7-carboxamide], a half-maximal effect (EC50) was put at 120 nM and the “Maximum % activity (%)” value came to 186%.
Taken in the same sequence, the figures for `CC(C)OC(=O)[C@H]1CC[C@H]([C@H]2C[C@@H](NC(=O)[C@@]3(C)COc4cc5c(cc43)OC(F)(F)O5)c3ccc(OC(F)(F)F)cc3O2)CC1` [Example 194, propan-2-yl trans-4-[(2R,4R)-4-{[(7R)-2,2-difluoro-7-methyl-6,7-dihydro-2H-furo[2,3-f][1,3]benzodioxole-7-carbonyl]amino}-7-(trifluoromethoxy)-3,4-dihydro-2H-1-benzopyran-2-yl]cyclohexane-1-carboxylate] were 60 nM and 143%.
On to `CCOC(=O)[C@H]1CC[C@@H]([C@@H]2C[C@H](NC(=O)[C@@]3(C)COc4cc5c(cc43)OC(F)(F)O5)c3ccc(OC(F)(F)F)cc3O2)CC1` [Example 158, ethyl cis-4-[(2S,4S)-4-{[(7R)-2,2-difluoro-7-methyl-6,7-dihydro-2H-furo[2,3-f][1,3]benzodioxole-7-carbonyl]amino}-7-(trifluoromethoxy)-3,4-dihydro-2H-1-benzopyran-2-yl]cyclohexane-1-carboxylate], for which the EC50 came out at 3670 nM and the “Maximum % activity (%)” value is on record as 111%.
Taken in the same sequence, the figures for `Cc1ccc(NC(=O)[C@]2(C)COc3cc4c(cc32)OC(F)(F)O4)nc1-c1cccc(C(=O)OC(C)(C)C)c1` [Example 3, tert-butyl 3-(6-{[(7S)-2,2-difluoro-7-methyl-6,7-dihydro-2H-furo[2,3-f][1,3]benzodioxole-7-carbonyl]amino}-3-methylpyridin-2-yl)benzoate] were above 20000 nM and 3%.
For `C[C@]1(C(=O)N[C@@H]2C[C@H]([C@H]3CC[C@H](C(=O)NC(CO)c4ccccc4)CC3)Oc3cc(OC(F)(F)F)ccc32)COc2cc3c(cc21)OC(F)(F)O3` (stereo partly drawn) [Example 269, (7R)-2,2-difluoro-N-[(2R,4R)-2-{trans-4-[(2-hydroxy-1-phenylethyl)carbamoyl]cyclohexyl}-7-(trifluoromethoxy)-3,4-dihydro-2H-1-benzopyran-4-yl]-7-methyl-6,7-dihydro-2H-furo[2,3-f][1,3]benzodioxole-7-carboxamide], in that order: 50 nM and 192%.
On to `Cc1ccc(NC(=O)C2(C)CCc3cc4c(cc32)OC(F)(F)O4)nc1-c1cccc(C(=O)O)c1` (stereo not shown) [Example 51, 3-{6-[(2,2-difluoro-5-methyl-6,7-dihydro-2H,5H-indeno[5,6-d][1,3]dioxole-5-carbonyl)amino]-3-methylpyridin-2-yl}benzoic acid], for which the EC50 was 930 nM and the “Maximum % activity (%)” value amounted to 153%.
For the compound `Cc1ccc(NC(=O)[C@@]2(C)COc3cc4c(cc32)OC(F)(F)O4)nc1-c1cccc(C#N)c1` [Example 78, (7R)—N-[6-(3-cyanophenyl)-5-methylpyridin-2-yl]-2,2-difluoro-7-methyl-6,7-dihydro-2H-furo[2,3-f][1,3]benzodioxole-7-carboxamide], the concentration giving a half-maximal response (EC50) was determined as 570 nM and the “Maximum % activity (%)” value turned out to be 95%.
For the compound `C[C@]1(C(=O)N[C@@H]2C[C@H]([C@H]3CC[C@H](C(=O)Nc4ccccc4O)CC3)Oc3cc(OC(F)(F)F)ccc32)COc2cc3c(cc21)OC(F)(F)O3` [Example 262, (7R)-2,2-difluoro-N-[(2R,4R)-2-{trans-4-[(2-hydroxyphenyl)carbamoyl]cyclohexyl}-7-(trifluoromethoxy)-3,4-dihydro-2H-1-benzopyran-4-yl]-7-methyl-6,7-dihydro-2H-furo[2,3-f][1,3]benzodioxole-7-carboxamide], the EC50 came to 90 nM and the “Maximum % activity (%)” value stood at 184%.
For `CC1(C)OC[C@@H](Cn2nc(-c3ccccc3)cc(NC(=O)[C@]3(C)COc4cc5c(cc43)OC(F)(F)O5)c2=O)O1` [Example 41, (7S)—N-(2-{[(4R)-2,2-dimethyl-1,3-dioxolan-4-yl]methyl}-3-oxo-6-phenyl-2,3-dihydropyridazin-4-yl)-2,2-difluoro-7-methyl-6,7-dihydro-2H-furo[2,3-f][1,3]benzodioxole-7-carboxamide], in that order: above 20000 nM and 3%.
Take `COc1ccc2c(c1)O[C@@H](c1ccc(C(C)(C)O)cn1)C[C@H]2NC(=O)[C@@]1(C)COc2cc3c(cc21)OC(F)(F)O3` [Example 181, (7R)-2,2-difluoro-N-{(2R,4R)-2-[5-(2-hydroxypropan-2-yl)pyridin-2-yl]-7-methoxy-3,4-dihydro-2H-1-benzopyran-4-yl}-7-methyl-6,7-dihydro-2H-furo[2,3-f][1,3]benzodioxole-7-carboxamide]: a half-maximal effect (EC50) was put at 30 nM and the “Maximum % activity (%)” value was found to be 129%.
Taken in the same sequence, the figures for `COc1ccc2c(c1)O[C@@H](c1ccc(Cl)nn1)C[C@H]2NC(=O)[C@@]1(C)COc2cc3c(cc21)OC(F)(F)O3` [Example 195, (7R)—N-[(2R,4R)-2-(6-chloropyridazin-3-yl)-7-methoxy-3,4-dihydro-2H-1-benzopyran-4-yl]-2,2-difluoro-7-methyl-6,7-dihydro-2H-furo[2,3-f][1,3]benzodioxole-7-carboxamide] were 340 nM and 101%.
For `COc1ccc2c(c1)O[C@@H](c1ccc(C(=O)NC3c4ccccc4CC3O)cn1)C[C@H]2NC(=O)[C@@]1(C)COc2cc3c(cc21)OC(F)(F)O3` (stereo partly drawn) [Example 221, 6-[(2R,4R)-4-{[(7R)-2,2-difluoro-7-methyl-6,7-dihydro-2H-furo[2,3-f][1,3]benzodioxole-7-carbonyl]amino}-7-methoxy-3,4-dihydro-2H-1-benzopyran-2-yl]-N-(2-hydroxy-2,3-dihydro-1H-inden-1-yl)pyridine-3-carboxamide], the concentration for a half-maximal effect (EC50) was 80 nM and the “Maximum % activity (%)” value came out at 125%.
In the case of “4-[(2R,4S,6R)-4-{[(7R)-2,2-difluoro-7-methyl-6,7-dihydro-2H-furo[2,3-f][1,3]benzodioxole-7-carbonyl]amino}-6-methyloxan-2-yl]benzoic acid and 4-[(2S,4R,6S)-4-{[(7R)-2,2-difluoro-7-methyl-6,7-dihydro-2H-furo[2,3-f][1,3]benzodioxole-7-carbonyl]amino}-6-methyloxan-2-yl]benzoic acid [Example 43]”, the EC50 was determined as 2510 nM and the “Maximum % activity (%)” value is reported as 93%.

The record behind these values is patent publication US9840513B2 (AbbVie S.à.r.l., priority 2015, dated 2017).
